{"source": "paper PMC6627558", "about": "“Structures and Bioactivities of Six New Triterpene Glycosides, Psolusosides E, F, G, H, H1, and I and the Corrected Structure of Psolusoside B from the Sea Cucumber Psolus fabricii” (Marine Drugs, 2019)", "key": {"mouse erythrocytes": {"tested_on": "mouse erythrocytes", "assay": "Hemolytic activity against mouse erythrocytes", "assay_type": "cell-based", "conditions": "24 h at 37 °C, read-out: Cytotoxicity EC50, Erhythrocytes (hemolytic activity)", "method": "Blood was taken from CD-1 mice (18–20 g). The mice were anesthetized with diethyl ether, their chests were rapidly opened, and blood was collected in cold (4 °C) 10 mM phosphate-buffered saline, pH 7.4 (PBS) without anticoagulant. Erythrocytes were washed 3 times in PBS using at least 10 vol. of washing solution by centrifugation (2000 rpm) for 5 min. Erythrocytes were used at a concentration that provided an optical density of 1.0 at 700 nm for a non-hemolyzed sample. Then, 20 μL of a water solution of test substance with a fixed concentration was added to a well of a 96-well plate containing 180 μL of the erythrocyte suspension. Erythrocyte suspension was incubated with substances for 24 h at 37 °C. After that, the optical density of the obtained solutions was measured and ED50 for hemolytic activity of each compound was calculated."}, "[1]": {"tested_on": "ascite form of mouse Ehrlich carcinoma cells", "assay": "Cytotoxic activity against ascite form of mouse Ehrlich carcinoma cells (nonspecific esterase / MTT assay)", "assay_type": "cell-based", "method": "(§1) The museum tetraploid strain of murine ascite Ehrlich carcinoma cells from the All-Russian Oncology Center (Moscow, Russia) was used. The cells were separated from the ascites, which were collected on day 7 after inoculation in mouse CD-1 line. The cells were washed of the ascites triply and resuspended in RPMI-1640 medium containing 8 μg/mL gentamicin (BioloT, St-Petersburg, Russia). Neuroblastoma Neuro 2A cells were cultured in DMEM medium containing 10% fetal bovine serum (FBS), (BioloT, St-Petersburg, Russia) and normal epithelial JB-6 cells were cultured in DMEM medium containing 5% fetal bovine serum (FBS), (BioloT, St-Petersburg, Russia) and 1% penicillin/streptomycine (Invitrogen). The HT-29 (ATCC # HTB-38) human colon cancer cell line was grown in monolayer in McCoy’s 5A medium supplemented with 10% (v/v) heat-inactivated FBS, 2 mM L-glutamine, and 1% penicillin-streptomycin in a humidified atmosphere containing 5% CO2. Cells were maintained in a sterile environment and kept in an incubator at 5% CO2 and 37 °C to promote growth. HT-29 cells were sub-cultured every 3–4 days by rinsing with phosphate buffered saline (PBS), adding trypsin to detach the cells from the tissue culture flask, and transferring 10%–20% of the harvested cells to a new flask containing fresh growth media.\n(§2) Cytotoxic activity against ascite form of mouse Ehrlich carcinoma cells was investigated by nonspecific esterase activity assay. In total, 10µL of the test substance solution and 100 μL of the cell suspension were placed into each well of a 96-well microplate. The plate was incubated in a CO2 incubator at 37 °C for 1 or 24 h. A stock solution of the probe fluorescein diacetate (FDA; Sigma, St. Louis, MO, USA) in DMSO (1 mg/mL) was prepared. After incubation of the cells with test compounds, 10 μL of FDA solution (50 μg/mL) was added to each well and the plate was incubated at 37 °C for 15 min. Cells were washed with PBS, and fluorescence was measured with a Fluoroskan Ascent plate reader (Thermo Labsystems, Helsinky, Finland) at λex = 485 nm and λem = 518 nm. All experiments were repeated in triplicate. Cytotoxic activity was expressed as the percent of cell viability. Nonspecific esterase activity assay has been used for determination of cytotoxicity against neuroblastoma Neuro 2A and normal epithelial JB-6 cells.\nThe solutions of tested substances in different concentrations (20 µL) and cell suspension (200 µL) were added in wells of 96-well plate and incubated over night at 37 °C and 5% CO2. After incubation, the cells were sedimented by centrifugation, 200 µL of medium from each well were collected, and 100 µL of pure medium were added. Then, 10 µL of MTT solution […] (Sigma, St. Louis, MO, USA) were added in each well. The plate was incubated for 4 h, after which 100 µL SDS-HCl were added to each well, and the plate was incubated at 37 °C for 4–18 h. Optical density was measured at 570 nm and 630–690 nm. Cytotoxic activity of the substances was calculated as the concentration that caused 50% metabolic cell activity inhibition (IC50). The MTT assay has been used for determination of cytotoxic activity against Ehrlich carcinoma cells."}, "[2]": {"tested_on": "mouse neuroblastoma Neuro 2A cells", "assay": "Cytotoxicity against neuroblastoma Neuro 2A cells (nonspecific esterase activity assay)", "assay_type": "cell-based", "conditions": "mouse neuroblastoma Neuro 2A cells", "method": "as §1, §2"}, "[3]": {"tested_on": "normal epithelial JB-6 cells", "assay": "Cytotoxicity against normal epithelial JB-6 cells (nonspecific esterase activity assay)", "assay_type": "cell-based, mouse", "conditions": "normal epithelial JB-6 cells", "method": "as §1, §2"}, "[4]": {"tested_on": "human colorectal adenocarcinoma HT-29 cells", "assay": "MTS assay, cell viability of HT-29 cells", "assay_type": "cell-based", "conditions": "0–20 μM, 24 h", "method": "as §1\nThe HT-29 cells (1.0 × 10^4/well) were seeded in 96-well plates for 24 h at 37 °C in 5% CO2 incubator. The cells were treated with the tested substances at concentrations range from 0 to 20 μM for an additional 24 h. Subsequently, cells were incubated with 15 μL MTS reagent for 3 h and the absorbance in each well was measured at 490/630 nm using microplate reader “Power Wave XS” (Bio Tek, Winooski, VT, USA). All the experiments were repeated three times, and the mean absorbance values were calculated. The results are expressed as the percentage of inhibition that produced a reduction in absorbance by compound’s treatment compared to the non-treated cells (control)."}, "[5]": {"tested_on": "human colorectal adenocarcinoma HT-29 cells", "assay": "Soft agar assay, colony formation and growth of HT-29 cells", "assay_type": "cell-based", "conditions": "0–10 μM, 14 days, read-out: Soft Agar Assay ICCF50 (inhibition of colony formation)", "method": "as §1\nThe HT-29 cells (8.0 × 10^3) were seeded in 6-well plate and treated with the tested compounds at concentrations range 0–10 μM in 1 mL of 0.3% Basal Medium Eagle (BME) agar containing 10% FBS, 2mM L-glutamine, and 25 μg/mL gentamicin. The cultures were maintained at 37 °C in a 5% CO2 incubator for 14 days, and the cell’s colonies were scored using a microscope “Motic AE 20” (Scientific Instrument Company, Campbell, CA, USA) and the Motic Image Plus version 2.0 (Scientific Instrument Company, Campbell, CA, USA) computer program."}}, "data": [{"compound": "C=C(C)CCC[C@]1(C)OC(=O)[C@]23CC=C4[C@@H](CC[C@H]5C(C)(C)[C@@H](O[C@@H]6OC[C@@H](O)[C@H](O)[C@H]6O[C@@H]6O[C@H](C)[C@@H](O[C@@H]7O[C@H](COS(=O)(=O)[O-])[C@@H](O)[C@H](O[C@@H]8O[C@H](COS(=O)(=O)[O-])[C@@H](O)[C@H](OC)[C@H]8O)[C@H]7O)[C@H](O)[C@H]6O)CC[C@]45C)[C@]2(C)CC(=O)[C@@H]31.[Na+].[Na+]", "note": "[Psolusoside A, 3β-O-[6-O-sodium sulfate-3-O-methyl-β-D-glucopyranosyl-(1→3)-6-O-sodium-sulfate-β-D-glucopyranosyl-(1→4)-β-D-quinovopyranosyl-(1→2)-β-D-xylopyranosyl]-16-ketoholosta-9(11),25-diene, reference compound]", "values": [{"measurement": "EC50", "setting": "mouse erythrocytes", "value": 1.4, "unit": "µM"}, {"measurement": "cytotoxic action against mouse Ehrlich carcinoma cells (in words)", "setting": "[1]; ascite form", "value": "moderate cytotoxic action"}, {"measurement": "EC50", "setting": "[1]; ascite form of mouse Ehrlich carcinoma cells, read-out: Cytotoxicity EC50, Ehrlich carcinoma", "value": 30.9, "unit": "µM"}, {"measurement": "EC50", "setting": "[2]", "value": 2.9, "unit": "µM"}, {"measurement": "EC50", "setting": "[3]", "value": 7.5, "unit": "µM"}, {"measurement": "IC50", "setting": "[4]", "value": "> 20", "unit": "µM"}, {"measurement": "IC50", "setting": "[5]", "value": "> 10", "unit": "µM"}]}]}
